US11890288B2, “Sulfonamide or sulfinamide compound having effect of inducing BRD4 protein degradation and pharmaceutical use thereof” (MITSUBISHI TANABE PHARMA CORPORATION, priority 2020, dated 2024)
Marks after values point to notes of the source that are not given here.

Columns and labels:
[1] = tested on: human acute myeloid leukemia MV-4-11 cell transplanted mouse; test: Antitumor effect of 1 week intermittent administration to MV-4-11 cell transplanted mouse (tail vein, days 1 and 8); assay type: in vivo; conditions: tumor weight on day 15
Procedure: (§1) The in vivo antitumor effect of the compound of the present invention was studied using human acute myeloid leukemia MV-4-11 cell transplanted mouse. MV-4-11 cells were subcutaneously transplanted into the inguinal region of male, 6-week-old BALB/c nude mouse (5×10^6 cells/mouse). The compound of the present invention was administered into the tail vein on days 1 and 8 from the time point when the assumed tumor volume determined from ½ab^2 (a is major axis and b is minor axis of tumor) reached about 200 mm^3 (day 1). The control group was administered with a solvent, 10% Kolliphor ELP/5% ethanol/85% saline solution. On day 15, the tumor was isolated, the weight was measured, and the tumor growth inhibitory rate IR (%) was calculated by the following formula. tumor growth inhibitory rate IR (%)={1−(average tumor weight of administration group/average tumor weight of nonadministration control group)}×100(%)

[2] = tested on: human multiple myeloma MM.1S cell; test: Cytotoxic action on MM.1S cells (WST-8, 96 hr); assay type: cell-based; conditions: MM1.S
Procedure: (§2) The cytotoxic action of the compound of the present invention against human cancer cells was evaluated in vitro. In this experiment, (+)-JQ1 (Nature volume 468, pages 1067-1073 (23 Dec. 2010)) known to have an inhibitory activity on the binding of BRD4 protein and a ligand therefor was used as a positive control drug. Respective cells were suspended in 10% FBS/RPMI1640, seeded in a 96 well plate and cultured at 5% CO2, 37° C. overnight. A test compound dissolved in DMSO was diluted with 10% FBS/RPMI1640 and added and the cells were further cultured for 96 hr. After culturing, the viable cell number was measured using a cell number measurement WST-8 kit (Kishida Chemical Co., Ltd.). As a control, the measurement was performed under conditions free of the test compound. The cytotoxic activity of the compound of the present invention against human prostate cancer LNCaP cells is shown in IC50 value in Table 1. The IC50 value is a concentration of the compound showing 50% cell survival rate when the cell survival rate thereof under compound untreated condition is 100%. It was calculated from the straight line connecting the cell survival rate at two points enclosing the 50% cell survival rate and the compound concentration. […]

[3] = tested on: human stomach cancer SNU-16 cell; test: Cytotoxic action on SNU-16 cells (WST-8, 96 hr); assay type: cell-based; conditions: SNU-16, 96 hr
Procedure: as §2

MDA-MB-436 w/o2 cells = test: Cytotoxic action on MDA-MB-436 w/o2 cells that acquired resistance to conventional BRD4 degraders (WST-8, 96 hr); assay type: cell-based, human
Procedure: The cytotoxic action of the compound of the present invention against cancer cells that acquired resistance to conventional BRD4 protein degradation inducing agents was evaluated in vitro. In this experiment, ARV-771 (Proc Natl Acad Sci USA. volume 113, pages 7124-7129 (28 Jun. 2016)) and MZ1 (ACS Chem Biol. Volume 10, pages 1770-1777 (21 Aug. 2015)), in which a ligand for VHL and BRD4 protein inhibitor are linked, were used as a conventional BRD4 protein degradation inducing agent serving as a comparison control. Human breast cancer MDA-MB-436 cells and MDA-MB-436 cells that acquired resistance to conventional BRD4 protein degradation inducing agents (MDA-MB-436 w/o2 cells) were suspended in 10% FBS/RPMI1640, seeded in a 96 well plate and cultured at 5% CO2, 37° C. overnight. A test compound dissolved in DMSO was diluted with 10% FBS/RPMI1640 and added and the cells were further cultured for 96 hr. After culturing, the viable cell number was measured using a cell number measurement WST-8 kit (Kishida Chemical Co., Ltd.). As a control, the measurement was performed under conditions free of the test compound. The cytotoxic activity of the compound of the present invention against each cell is shown in IC50 value in Table 4. The IC50 value is a concentration of the compound showing 50% cell survival rate when the cell survival rate thereof under compound untreated condition is 100%. It was calculated from the straight line connecting the cell survival rate at two points enclosing the 50% cell survival rate and the compound concentration. In addition, the tolerance (fold) was calculated by dividing the IC50 value in MDA-MB-436 w/o2 cells by the IC50 value in MDA-MB-436 cells.

[4] = tested on: human bile duct cancer HuCCT1 cell; test: Cytotoxic action on HuCCT1 cells (WST-8, 96 hr); assay type: cell-based; conditions: HuCCT-1, HuCCT1, 96 hr
Procedure: as §2

[5] = tested on: human fibrosarcoma HT1080 cell; test: Cytotoxic action on HT1080 cells (WST-8, 96 hr); assay type: cell-based; conditions: HT-1080, HT1080, 96 hr
Procedure: as §2

[6] = tested on: human acute myeloid leukemia MV-4-11 cell transplanted mouse; test: Antitumor effect in MV-4-11 cell transplanted mouse (tail vein, days 1, 5, 9, 13); assay type: in vivo; conditions: tumor weight on day 15
Procedure: as §1, with “1, 5, 9, 13” for “1 and 8”, “100” for “200”, “20% hydroxypropyl-β-cyclodextrin” for “10% Kolliphor ELP/5% ethanol/85% saline”

For `COC(=O)C[C@@H]1N=C(c2ccc(-c3ccc(C(=O)NCc4ccc(S(=O)(=O)Nc5ccc(C)c6c(C#N)c[nH]c56)cc4)cc3)cc2)c2c(sc(C)c2C)-n2c(C)nnc21` [Example 1, methyl [(6S)-4-{4′-[({4-[(3-cyano-4-methyl-1H-indol-7-yl)sulfamoyl]phenyl}methyl)carbamoyl][1,1′-biphenyl]-4-yl}-2,3,9-trimethyl-6H-thieno[3,2-f][1,2,4]triazolo[4,3-a][1,4]diazepin-6-yl]acetate], which “tumor growth inhibitory rate” value ([1]; 4 mg/kg/day) is on record?
Its value is 56** %.

What about the “tumor growth inhibitory rate” value ([1]; 12.5 mg/kg/day) of the same compound?
The value was 92** %.

What about the IC50 [2] of the same compound?
Its IC50 is 0.026 nM.

What about the IC50 [3] of the same compound?
Its IC50 is 6.4 nM.

What about the IC50 (MDA-MB-436 w/o2 cells; Homo sapiens, MDA-MB-436 w/o2 cells, 96 hr) of the same compound?
The IC50 was 0.51 nM.

And the resistance (MDA-MB-436 w/o2 cells; IC50 in MDA-MB-436 w/o2 cells divided by IC50 in MDA-MB-436 cells)?
Its resistance is 1.3 fold.

And the IC50 [4]?
Its IC50 is 26 nM.

What about the IC50 [5] of the same compound?
The IC50 was 13 nM.

What about the “tumor growth inhibitory rate” value ([6]; 1 mg/kg/day) of the same compound?
Its value is 68.4* %.

What about the “tumor growth inhibitory rate” value ([6]; 3 mg/kg/day) of the same compound?
Its value is 95.3* %.
